ChEMBL document CHEMBL1134300, “Oxindole-based inhibitors of cyclin-dependent kinase 2 (CDK2): design, synthesis, enzymatic activities, and X-ray crystallographic analysis” (J Med Chem, 2001)

Experiments:
[1] = molecular target: Cyclin-dependent kinase 2 (Homo sapiens, UniProt P24941)
Description: Inhibitory activity against human cyclin-dependent kinase 2 (CDK2)

[2] = molecular target: Cyclin-dependent kinase 1 (Homo sapiens, UniProt P06493)
Chain of Cyclin-dependent kinase 1 (P06493 whole entry): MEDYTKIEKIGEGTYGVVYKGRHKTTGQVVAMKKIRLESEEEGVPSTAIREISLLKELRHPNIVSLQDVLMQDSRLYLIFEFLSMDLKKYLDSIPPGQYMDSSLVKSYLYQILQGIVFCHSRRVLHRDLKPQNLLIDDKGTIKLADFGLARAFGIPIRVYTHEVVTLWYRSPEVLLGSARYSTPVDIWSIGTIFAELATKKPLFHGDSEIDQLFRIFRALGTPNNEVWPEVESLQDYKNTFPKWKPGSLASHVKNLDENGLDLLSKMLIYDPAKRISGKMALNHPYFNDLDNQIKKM
Description: Inhibitory activity against human cyclin-dependent kinase 1 (CDK1)

Structure (SMILES)	IC50 [1]	IC50 [2]
CC(C)(CO)CNC(=O)c1ccc2c(c1)C(=NNc1ccc(S(N)(=O)=O)cc1)C(=O)N2 [GW301784X]	6.8 nM	60 nM
NS(=O)(=O)c1ccc(N/N=C2\C(=O)Nc3ccc4ncccc4c32)cc1 [GW305178X]	1.6 nM	12 nM
C/C(Nc1ccc(S(N)(=O)=O)cc1)=C1/C(=O)Nc2ccccc21 [GW335962X]	360 nM	2300 nM
CC(C)=Cc1cccc2c1C(=NNc1ccc(S(N)(=O)=O)cc1)C(=O)N2 [GW396574X]	1.5 nM	15 nM
CN(C)c1ccc2c(c1)/C(=C/Nc1ccc(S(N)(=O)=O)cc1)C(=O)N2 [GW416469X]	310 nM	2800 nM
CC(C)COC(=O)c1ccc2c(c1)/C(=C/Nc1ccc(S(N)(=O)=O)cc1)C(=O)N2 [GW416981X]	3 nM	19 nM
NS(=O)(=O)c1ccc(NC=C2C(=O)Nc3ccc4ncsc4c32)cc1 [GW589933X]	2.8 nM	29 nM
